# Test results as given in patent publication US12570631B2, “Substituted N-(4-(pyrimidin and pyridin-4-yl)benzylcarboxamides and its use for treating disorders responsive to inhibition of Btk” (BIOGEN MA INC., priority 2019, dated 2026).
# Like-named read-outs stand apart in the source and are kept apart here.
# What was measured:
# BTK = BTK (Homo sapiens (Human), UniProt Q06187); assay: In vitro BTK kinase assay: Btk-PolyGAT-LS assay; assay type: biochemical; details: ATP 10 μM, polyGAT 100 nM, BTK 0.25 nM, 30 minutes
# BTK, sequence (Q06187 whole entry): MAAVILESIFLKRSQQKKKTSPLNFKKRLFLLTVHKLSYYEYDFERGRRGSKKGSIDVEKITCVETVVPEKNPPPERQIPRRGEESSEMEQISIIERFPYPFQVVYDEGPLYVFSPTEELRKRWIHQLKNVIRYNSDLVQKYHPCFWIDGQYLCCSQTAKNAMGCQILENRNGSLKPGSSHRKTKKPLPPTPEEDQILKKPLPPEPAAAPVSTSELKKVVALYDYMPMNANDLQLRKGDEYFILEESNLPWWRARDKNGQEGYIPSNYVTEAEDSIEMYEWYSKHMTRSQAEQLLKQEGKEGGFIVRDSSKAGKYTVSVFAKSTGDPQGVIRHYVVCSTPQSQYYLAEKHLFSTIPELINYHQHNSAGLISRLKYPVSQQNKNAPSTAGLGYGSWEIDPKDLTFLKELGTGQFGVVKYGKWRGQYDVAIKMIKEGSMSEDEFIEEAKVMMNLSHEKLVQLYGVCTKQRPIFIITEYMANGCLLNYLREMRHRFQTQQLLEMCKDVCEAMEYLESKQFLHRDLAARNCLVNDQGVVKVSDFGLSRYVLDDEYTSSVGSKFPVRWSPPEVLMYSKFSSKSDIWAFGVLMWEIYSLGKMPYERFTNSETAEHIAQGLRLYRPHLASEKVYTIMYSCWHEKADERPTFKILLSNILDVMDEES
# [1] = test system: CD69 expression on CD19+ B cells in human whole blood; assay: In vitro whole blood CD69 assay; assay type: cell-based; details: B-cell
# [2] = Whole Blood CD69 inhibition, human heparinized blood, anti-human IgD stimulation, CD19+ B cells expressing CD69, read-out: IC50
SMILES,IC50 (BTK) [nM],"IC50 [1, 2] [nM]",IC50 ([1]; Homo sapiens) [nM]
"C=CC(=O)N(C)CCOc1c(N)ncnc1-c1ccc(CNC(=O)c2cnn(C(C)(C)C)c2)c(C)c1 [Example 10, N-(4-(6-amino-5-(2-(N-methylacrylamido)ethoxy)pyrimidin-4-yl)-2-methylbenzyl)-1-(tert-butyl)-1H-pyrazole-4-carboxamide]",< 1,< 100,
"C=CC(=O)N(C)CCOc1c(N)ncnc1-c1ccc(CN2CCN(CC(C)(C)C)CC2=O)c(C)c1 [Example 9, N-(2-((4-amino-6-(3-methyl-4-((4-neopentyl-2-oxopiperazin-1-yl)methyl)phenyl)pyrimidin-5-yl)oxy)ethyl)-N-methylacrylamide]",< 1,< 100,
"C=CC(=O)N(C)CCOc1cnccc1-c1ccc(CNC(=O)c2cc(C(C)(C)C)on2)c(C)c1 [Example 16, 5-(tert-butyl)-N-(2-methyl-4-(3-(2-(N-methylacrylamido)ethoxy)pyridin-4-yl)benzyl)isoxazole-3-carboxamide]",< 1,,
"C=CC(=O)N1CCC(COc2cnccc2-c2ccc(CNC(=O)c3cn(C(C)(C)C)nn3)c(C)c2F)C1 (stereo not drawn) [Example 51, N-(4-(3-((1-acryloylpyrrolidin-3-yl)methoxy)pyridin-4-yl)-3-fluoro-2-methylbenzyl)-1-(tert-butyl)-1H-1,2,3-triazole-4-carboxamide]",< 1,,
"C=CC(=O)N1CC(Oc2cnccc2-c2ccc(CNC(=O)c3cn(C(C)(C)C)nn3)c(C)c2)C1 [Example 33, N-(4-(3-((1-acryloylazetidin-3-yl)oxy)pyridin-4-yl)-2-methylbenzyl)-1-(tert-butyl)-1H-1,2,3-triazole-4-carboxamide]",1 to 10,,> 1000
"C=CC(=O)N(C)CCOc1c(N)ncnc1-c1ccc(CNC(=O)c2nnc(C(C)(C)C)o2)c(C)c1 [Example 1, N-(4-(6-amino-5-(2-(N-methylacrylamido)ethoxy)pyrimidin-4-yl)-2-methylbenzyl)-5-(tert-butyl)-1,3,4-oxadiazole-2-carboxamide]",< 1,,< 100
"C=CC(=O)N(C)CCOc1cnccc1-c1ccc(CN2CCc3c(cnn3C(C)(C)C)C2=O)c(C)c1 [Example 12, N-(2-((4-(4-((1-(tert-butyl)-4-oxo-1,4,6,7-tetrahydro-5H-pyrazolo[4,3-c]pyridin-5-yl)methyl)-3-methylphenyl)pyridin-3-yl)oxy)ethyl)-N-methylacrylamide]",< 1,100 to 1000,
"C=CC(=O)N(C)CCOc1c(N)ncnc1-c1ccc(CN2Cc3cc(C4CC4)sc3C2=O)c(C)c1 [Example 11, N-(2-((4-amino-6-(4-((2-cyclopropyl-6-oxo-4,6-dihydro-5H-thieno[2,3-c]pyrrol-5-yl)methyl)-3-methylphenyl)pyrimidin-5-yl)oxy)ethyl)-N-methylacrylamide]",< 1,100 to 1000,
"C=CC(=O)N(C)CCOc1cnccc1-c1ccc(CNC(=O)c2noc(C(C)(C)C)n2)c(C)c1 [Example 4, 5-(tert-butyl)-N-(2-methyl-4-(3-(2-(N-methylacrylamido)ethoxy)pyridin-4-yl)benzyl)-1,2,4-oxadiazole-3-carboxamide]",< 1,< 100,
"Cc1cc(-c2ccncc2OC2CCN(C(=O)/C=C/CN(C)C)C2)ccc1CNC(=O)c1cn(C(C)(C)C)nn1 (stereo not drawn) [Example 41, (E)-1-(tert-butyl)-N-(4-(3-((1-(4-(dimethylamino)but-2-enoyl)pyrrolidin-3-yl)oxy)pyridin-4-yl)-2-methylbenzyl)-1H-1,2,3-triazole-4-carboxamide]",> 10,> 1000,
"C=CC(=O)N1CCCC(Oc2cncnc2-c2ccc(CNC(=O)c3cn(C(C)(C)C)nn3)c(C)c2)C1 (stereo not drawn) [Example 39, N-(4-(5-((1-acryloylpiperidin-3-yl)oxy)pyrimidin-4-yl)-2-methylbenzyl)-1-(tert-butyl)-1H-1,2,3-triazole-4-carboxamide]",> 10,> 1000,
"C=CC(=O)N1CC[C@H](Oc2cnccc2-c2ccc(CNC(=O)c3cn(C(C)(C)C)nn3)c(C)c2)C1 (single isomer, unassigned) [Example 36]",1 to 10,> 1000,
"C=CC(=O)N(C)CCOc1cnccc1-c1ccc(CNC(=O)c2cc(C(C)(C)C)on2)c(F)c1F [Example 17, 5-(tert-butyl)-N-(2,3-difluoro-4-(3-(2-(N-methylacrylamido)ethoxy)pyridin-4-yl)benzyl)isoxazole-3-carboxamide]",< 1,,
"C=CC(=O)N(C)CCOc1cnccc1-c1ccc(CNC(=O)c2noc(C(C)(C)C)n2)c(C(F)(F)F)c1 [Example 14, 5-(tert-butyl)-N-(4-(3-(2-(N-methylacrylamido)ethoxy)pyridin-4-yl)-2-(trifluoromethyl)benzyl)-1,2,4-oxadiazole-3-carboxamide]",< 1,,
"C=CC(=O)N1CCCC1COc1cnccc1-c1ccc(CNC(=O)c2cn(C(C)(C)C)nn2)c(C)c1F (stereo not drawn) [Example 49, N-(4-(3-((1-acryloylpyrrolidin-2-yl)methoxy)pyridin-4-yl)-3-fluoro-2-methylbenzyl)-1-(tert-butyl)-1H-1,2,3-triazole-4-carboxamide]",1 to 10,> 1000,
"C#CC(=O)N1CCCC1COc1cnccc1-c1ccc(CNC(=O)c2cn(C(C)(C)C)nn2)c(C)c1F (stereo not drawn) [Example 48, 1-(tert-butyl)-N-(3-fluoro-2-methyl-4-(3-((1-propioloylpyrrolidin-2-yl)methoxy)pyridin-4-yl)benzyl)-1H-1,2,3-triazole-4-carboxamide]",1 to 10,,
"C=CC(=O)N(C)CCOc1cnccc1-c1ccc(CNC(=O)c2noc(C(C)(C)C)n2)cc1F [Example 13, 5-(tert-butyl)-N-(3-fluoro-4-(3-(2-(N-methylacrylamido)ethoxy)pyridin-4-yl)benzyl)-1,2,4-oxadiazole-3-carboxamide]",< 1,,
"C=CC(=O)N1CCC(Oc2cnccc2-c2ccc(CNC(=O)c3cn(C(C)(C)C)nn3)c(C)c2)C1 (stereo not drawn) [Example 34, N-(4-(3-((1-acryloylpyrrolidin-3-yl)oxy)pyridin-4-yl)-2-methylbenzyl)-1-(tert-butyl)-1H-1,2,3-triazole-4-carboxamide]",> 10,,
"C=CC(=O)N(C)CC(=O)Nc1cncnc1-c1ccc(CNC(=O)c2cn(C(C)(C)C)nn2)c(C)c1 [Example 29, 1-(tert-butyl)-N-(2-methyl-4-(5-(2-(N-methylacrylamido)acetamido)pyrimidin-4-yl)benzyl)-1H-1,2,3-triazole-4-carboxamide]",< 1,,
"C=CC(=O)N(C)CCOc1cnccc1-c1ccc(CNC(=O)c2ccn(C(C)(C)C)n2)c(Cl)c1F [Example 15, 1-(tert-butyl)-N-(2-chloro-3-fluoro-4-(3-(2-(N-methylacrylamido)ethoxy)pyridin-4-yl)benzyl)-1H-pyrazole-3-carboxamide]",1 to 10,,
"C=CC(=O)NCC(=O)Nc1cncnc1-c1ccc(CNC(=O)c2cn(C(C)(C)C)nn2)c(C)c1 [Example 30, N-(4-(5-(2-acrylamidoacetamido)pyrimidin-4-yl)-2-methylbenzyl)-1-(tert-butyl)-1H-1,2,3-triazole-4-carboxamide]",1 to 10,,
"C=CC(=O)N1CC[C@H]1COc1cnccc1-c1ccc(CNC(=O)c2ccc(C(F)(F)F)nc2)c(C)c1 [Example 52, (S)-N-(4-(3-((1-acryloylazetidin-2-yl)methoxy)pyridin-4-yl)-2-methylbenzyl)-6-(trifluoromethyl)nicotinamide]",> 10,,
